The values that follow come from BindingDB's records for doi:10.7270/Q2CZ35ND (Burnham Center For Chemical Genomics, 2011).

The target in this experiment is DNA dC->dU-editing enzyme APOBEC-3A (Homo sapiens, UniProt P31941). Kind of experiment: APOBEC3A DNA deaminase inhibitors, dose response, biochemical (AID 504722). The following applies: 25 °C.
DNA dC->dU-editing enzyme APOBEC-3A, sequence (P31941 whole entry): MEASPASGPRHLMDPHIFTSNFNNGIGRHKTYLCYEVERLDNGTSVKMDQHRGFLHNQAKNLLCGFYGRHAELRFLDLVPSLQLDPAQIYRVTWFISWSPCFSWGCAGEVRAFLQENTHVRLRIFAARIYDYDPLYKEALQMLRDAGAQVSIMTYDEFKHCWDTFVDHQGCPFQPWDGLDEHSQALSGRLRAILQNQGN
Regarding `COc1ccc(-n2c(O)cc(Sc3nnc(-c4ccccc4)[nH]3)c2O)cc1` [1-(4-methoxyphenyl)-3-[(5-phenyl-1H-1,2,4-triazol-3-yl)thio]pyrrolidine-2,5-dione], the IC50 – broadly, the concentration at which inhibition is half-maximal – is over 100 µM.

Consider `OCC12C=CC(O1)c1c2c(O)n(-c2ccccc2-c2ccccc2)c1O` (stereo not drawn) [7-(hydroxymethyl)-2-(2-phenylphenyl)-4,7a-dihydro-3aH-octahydro-1H-4,7-epoxyisoindole-1,3-dione], for which the IC50 was over 100 µM.

Consider `CCOc1ccc(-n2c(O)cc(Sc3nnc(-c4ccccc4)[nH]3)c2O)cc1` [MLS000765380], for which the IC50 was over 100 µM.
